Target: T1, Human M4 (Homo sapiens, UniProt P08173)
T1 sequence (P08173 1-479): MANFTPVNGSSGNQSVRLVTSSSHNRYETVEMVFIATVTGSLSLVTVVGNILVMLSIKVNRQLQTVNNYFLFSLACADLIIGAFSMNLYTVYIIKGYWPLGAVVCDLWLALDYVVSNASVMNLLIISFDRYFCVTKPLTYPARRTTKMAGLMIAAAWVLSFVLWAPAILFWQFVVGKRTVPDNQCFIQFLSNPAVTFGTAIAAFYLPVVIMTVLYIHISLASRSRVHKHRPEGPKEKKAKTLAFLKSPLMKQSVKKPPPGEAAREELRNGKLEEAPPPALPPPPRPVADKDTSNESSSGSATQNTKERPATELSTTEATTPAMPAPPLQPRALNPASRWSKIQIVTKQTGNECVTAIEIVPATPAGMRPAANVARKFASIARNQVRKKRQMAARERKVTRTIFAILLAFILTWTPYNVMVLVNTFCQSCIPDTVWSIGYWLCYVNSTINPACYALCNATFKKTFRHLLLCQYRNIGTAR
Test: M4 cell-based functional assay (calcium mobilization)
Set-up: expressed in transfected cells
Conditions: for Emax at 30 µM: % ACh maximum at 30 μM; for EC50: CHO-K1 hM4-Gqi5 cells, calcium flux, increase in EC20 acetylcholine response
Method: Human (h) and rat (r) M4 CDNAs, along with the chimeric G protein Gqi5, were transfected into Chinese hamster ovary (CHO-K1) cells purchased from the American Type Culture Collection using Lipofectamine2000. The transfected cells were subjected to selection antibiotic treatment to generate stable cell lines; G418 sulfate (1 mg/ml) for selecting M4 expressing cells and Hygromycin B (500 μg/mL) for selecting Gqi5 expressing cells. The resulting polyclones were further screened to obtain monoclones of hM4-Gqi5 and rM4-Gqi5 for compound screening assay. Stable monoclone cells were maintained in Ham's F-12 medium containing 10% heat-inactivated fetal bovine serum (FBS), 1× Antibiotic/Antimycotic, 20 mM HEPES, 500 μg/mL G418 sulfate, and 200 μg/mL Hygromycin B in 37° C. humidified incubators in the presence of 5% CO2.
The high throughput assay was employed to measure receptor-induced mobilization of intracellular calcium to determine compound activity. Test compound was added to cells expressing the muscarinic receptors that were loaded with calcium sensitive fluorescent dye. After a ˜2.5 minute incubation period, a submaximal (EC20) concentration of acetylcholine was added, and the response measured. This kinetic assay allows for simultaneous screening and potency determination of multiple pharmacological modes of action including agonist and potentiator activity. CHO-K1 cells stably expressing muscarinic receptors were plated in growth medium lacking G418 and hygromycin at 15,000 cells/20 μL/well in Greiner 384-well black-walled, tissue culture (TC)-treated, clear-bottom plates (Greiner Bio-One). Cells were incubated overnight at 37° C. and 5% CO2. The next day, calcium assay buffer (Hank's balanced salt solution (HBSS), 20 mM HEPES, 2.5 mM Probenecid, 4.16 mM sodium bicarbonate (Sigma-Aldrich, St. Louis, MO)) was prepared to dilute compounds, agonists, and Fluo-4-acetomethoxyester (Fluo-4-AM), fluorescent calcium indicator dye. Compounds were serially diluted 1:3 into 10 point concentration response curves in DMSO using the Bravo Liquid Handler (Agilent, Santa Clara, CA), transferred to a 384 well daughter plates using an Echo acoustic liquid handler (Beckman Coulter, Indianapolis, Indiana), and diluted in assay Buffer to a 2× final concentration. The agonist plates were prepared using acetylcholine (ACh, Sigma-Aldrich, St. Louis, MO) concentrations for the EC20 and ECMAX responses by diluting in assay buffer to a 5× final concentration. The 2× dye solution (2.3 μM) was prepared by mixing a 2.3 mM Fluo-4-AM stock in DMSO with 10% (w/v) pluronic acid F-127 in a 1:1 ratio in assay buffer. Using a microplate washer (BioTek, Winooski, VT), cells were washed with assay buffer for 3 times to remove medium. After the final wash, 20 μL of assay buffer remained in the cell plates. Immediately, 20 μL of the 2× dye solution (final 1.15 μM) was added to each well of the cell plate using a Multidrop Combi dispenser (Thermo Fisher, Waltham, MA). After cells were incubated with the dye solutions for 45 min at 37° C. in the presence of 5% CO2, the dye solutions were removed and replaced with assay buffer using a microplate washer, leaving 20 μL of assay buffer in the cell plate.
The prepared compound, agonist, and cell plates were placed inside the Functional Drug Screening System uCell (FDSS uCell, Hamamatsu, Japan) to measure the calcium flux.
The triple add protocol was used to measure Ca kinetics; Compound, ACh for EC2O, and ACh for EC80 adds in an order. Briefly, after establishment of a fluorescence baseline for 2 seconds (excitation, 480 nm; emission, 530 nm), first add occurred by adding 20 μL of test compound to the cells, and the response was measured for 140 seconds. This is followed by second add; 10 μL (5×) of an EC20 concentration of ACh agonist was added to the cells, and the response of the cells was measured for 125 seconds. […]

SMILES	Emax at 30 µM [%]	EC50 [nM]
Cc1cc(C#N)cnc1N1CCc2nc(-c3cncs3)sc2C1 [Compound 3, 5-methyl-6-(2-(thiazol-5-yl)-6,7-dihydrothiazolo[5,4-c]pyridin-5(4H)-yl)nicotinonitrile]	45	> 10000
Cc1coc2ncnc(N3CCc4nc(Br)sc4C3)c12 [Compound 22, 4-(2-bromo-6,7-dihydrothiazolo[5,4-c]pyridin-5(4H)-yl)-5-methylfuro[2,3-d]pyrimidine]	96	106
Cn1ccc2c(N3CCc4nc(Br)sc4C3)ncnc21 [Compound 27, 2-bromo-5-(7-methyl-7H-pyrrolo[2,3-d]pyrimidin-4-yl)-4,5,6,7-tetrahydrothiazolo[5,4-c]pyridine]	43	> 10000
Cc1csc2ncnc(N3CCc4nc(Br)sc4C3)c12 [Compound 23, 2-bromo-5-(5-methylthieno[2,3-d]pyrimidin-4-yl)-4,5,6,7-tetrahydrothiazolo[5,4-c]pyridine]	82	204
Cc1cc(C#N)cnc1N1CCc2nc(-c3cnn(C4CCC4)c3)sc2C1 [Compound 4, 6-(2-(1-cyclobutyl-1H-pyrazol-4-yl)-6,7-dihydrothiazolo[5,4-c]pyridin-5(4H)-yl)-5-methylnicotinonitrile]	54	> 10000
Cc1nc2c(s1)CN(c1nc3nccnc3cc1C)CC2 [Compound 57, 2-methyl-5-(7-methylpyrido[2,3-b]pyrazin-6-yl)-4,5,6,7-tetrahydrothiazolo[5,4-c]pyridine]	90	666
Brc1nc2c(s1)CN(c1ncnc3ccsc13)CC2 [Compound 26, 2-bromo-5-(thieno[3,2-d]pyrimidin-4-yl)-4,5,6,7-tetrahydrothiazolo[5,4-c]pyridine]	98	430
Cc1cc(C#N)cnc1N1CCc2ncsc2C1 [Compound 17, 6-(6,7-dihydrothiazolo[5,4-c]pyridin-5(4H)-yl)-5-methylnicotinonitrile]	92	3170
Cc1cc(C#N)cnc1N1CCc2nc(C(N)=O)sc2C1 [Compound 21, 5-(5-cyano-3-methylpyridin-2-yl)-4,5,6,7-tetrahydrothiazolo[5,4-c]pyridine-2-carboxamide]	98	301
Cc1nc(Cl)c(C)c(N2CCc3nc(Br)sc3C2)n1 [Compound 11, 2-bromo-5-(6-chloro-2,5-dimethylpyrimidin-4-yl)-4,5,6,7-tetrahydrothiazolo[5,4-c]pyridine]	85	103
Cc1c(N2CCc3nc(C4(F)CC4)sc3C2)nc2nn(CC3CC3)c(=O)n2c1C [Compound 78, 2-(cyclopropylmethyl)-7-(2-(1-fluorocyclopropyl)-6,7-dihydrothiazolo[5,4-c]pyridin-5(4H)-yl)-5,6-dimethyl-[1,2,4]triazolo[4,3-a]pyrimidin-3(2H)-one]	109	18
Cc1nc(Cl)c(C)c(N2CCc3nc(C)sc3C2)n1 [Compound 9, 5-(6-chloro-2,5-dimethylpyrimidin-4-yl)-2-methyl-4,5,6,7-tetrahydrothiazolo[5,4-c]pyridine]	98	660
Cc1cc2nccnc2nc1N1CCc2ncsc2C1 [Compound 53, 5-(7-methylpyrido[2,3-b]pyrazin-6-yl)-4,5,6,7-tetrahydrothiazolo[5,4-c]pyridine]	82	2790
Cc1cc2nccnc2nc1N1CCc2nc(Cl)sc2C1 [Compound 61, 2-chloro-5-(7-methylpyrido[2,3-b]pyrazin-6-yl)-4,5,6,7-tetrahydrothiazolo[5,4-c]pyridine]	68	414
Cc1cc2nc(C(=O)NC3(C#N)CC3)cc(=O)n2nc1N1CCc2nc(Br)sc2C1 [Compound 46, 7-(2-bromo-6,7-dihydrothiazolo[5,4-c]pyridin-5(4H)-yl)-N-(1-cyanocyclopropyl)-8-methyl-4-oxo-4H-pyrimido[1,2-b]pyridazine-2-carboxamide]	91	360
Cc1c(N2CCc3nc(C4CC4)sc3C2)nc2n[nH]c(=O)n2c1C [Compound 72, 7-(2-cyclopropyl-6,7-dihydrothiazolo[5,4-c]pyridin-5(4H)-yl)-5,6-dimethyl-[1,2,4]triazolo[4,3-a]pyrimidin-3(2H)-one]	91	5
Cc1cn2c(=O)[nH]nc2nc1N1CCc2nc(C3CCC3)sc2C1 [Compound 66, 7-(2-cyclobutyl-6,7-dihydrothiazolo[5,4-c]pyridin-5(4H)-yl)-6-methyl-[1,2,4]triazolo[4,3-a]pyrimidin-3(2H)-one]	76	13
Cc1cc2nccnc2nc1N1CCc2nc(-c3cccs3)sc2C1 [Compound 56, 5-(7-methylpyrido[2,3-b]pyrazin-6-yl)-2-(thiophen-2-yl)-4,5,6,7-tetrahydrothiazolo[5,4-c]pyridine]	50	2390
Cc1cc2nccnc2nc1N1CCc2nc(C(C)(C)C)sc2C1 [Compound 65, 2-(tert-butyl)-5-(7-methylpyrido[2,3-b]pyrazin-6-yl)-4,5,6,7-tetrahydrothiazolo[5,4-c]pyridine]	57	1890
Cc1c(N2CCc3nc(C4(C)CC4)sc3C2)nc2n[nH]c(=O)n2c1C [Compound 68, 5,6-dimethyl-7-(2-(1-methylcyclopropyl)-6,7-dihydrothiazolo[5,4-c]pyridin-5(4H)-yl)-[1,2,4]triazolo[4,3-a]pyrimidin-3(2H)-one]	97	40
Cc1nc(N2CCc3nc(Br)sc3C2)c2cc(Cl)ccc2n1 [Compound 32, 2-bromo-5-(6-chloro-2-methylquinazolin-4-yl)-4,5,6,7-tetrahydrothiazolo[5,4-c]pyridine]	91	200
Cc1c(C#N)nnc(N2CCc3nc(Nc4cccc(F)c4)sc3C2)c1C [Compound 6, 6-(2-((3-fluorophenyl)amino)-6,7-dihydrothiazolo[5,4-c]pyridin-5(4H)-yl)-4,5-dimethylpyridazine-3-carbonitrile]	41	> 10000
Cc1cc2nc(C(F)(F)F)cc(=O)n2nc1N1CCc2nc(Br)sc2C1 [Compound 36, 7-(2-bromo-6,7-dihydrothiazolo[5,4-c]pyridin-5(4H)-yl)-8-methyl-2-(trifluoromethyl)-4H-pyrimido[1,2-b]pyridazin-4-one]	91	37
Cc1cc2c(N3CCc4nc(Br)sc4C3)ncnc2s1 [Compound 24, 2-bromo-5-(6-methylthieno[2,3-d]pyrimidin-4-yl)-4,5,6,7-tetrahydrothiazolo[5,4-c]pyridine]	102	50

Reference: patent publication US12139498B1, “Positive allosteric modulators of the muscarinic acetylcholine receptor M4” (Vanderbilt University, priority 2023, dated 2024)
